Source: ChEMBL document CHEMBL5356950, “Past, present and future of xanthine oxidase inhibitors: design strategies, structural and pharmacological insights, patents and clinical trials” (RSC Med Chem, 2023)

Experiments:
[1] = Toxicity in Wistar rat assessed as decrease in serum uric acid level at 1 mg/kg, po measured after 6 hrs; assay type: organism-based; parameters: scale not given: the % may be the effect or the level left; conditions: in vivo
[2] = target: T1, Xanthine dehydrogenase/oxidase (Homo sapiens, UniProt P47989); assay: Inhibition of XO (unknown origin) using xanthine as substrate pre incubated for 15 mins followed by substrate addition measured after 30 mins by UV-VIS spectrophotometer analysis
T1 sequence (P47989 whole entry): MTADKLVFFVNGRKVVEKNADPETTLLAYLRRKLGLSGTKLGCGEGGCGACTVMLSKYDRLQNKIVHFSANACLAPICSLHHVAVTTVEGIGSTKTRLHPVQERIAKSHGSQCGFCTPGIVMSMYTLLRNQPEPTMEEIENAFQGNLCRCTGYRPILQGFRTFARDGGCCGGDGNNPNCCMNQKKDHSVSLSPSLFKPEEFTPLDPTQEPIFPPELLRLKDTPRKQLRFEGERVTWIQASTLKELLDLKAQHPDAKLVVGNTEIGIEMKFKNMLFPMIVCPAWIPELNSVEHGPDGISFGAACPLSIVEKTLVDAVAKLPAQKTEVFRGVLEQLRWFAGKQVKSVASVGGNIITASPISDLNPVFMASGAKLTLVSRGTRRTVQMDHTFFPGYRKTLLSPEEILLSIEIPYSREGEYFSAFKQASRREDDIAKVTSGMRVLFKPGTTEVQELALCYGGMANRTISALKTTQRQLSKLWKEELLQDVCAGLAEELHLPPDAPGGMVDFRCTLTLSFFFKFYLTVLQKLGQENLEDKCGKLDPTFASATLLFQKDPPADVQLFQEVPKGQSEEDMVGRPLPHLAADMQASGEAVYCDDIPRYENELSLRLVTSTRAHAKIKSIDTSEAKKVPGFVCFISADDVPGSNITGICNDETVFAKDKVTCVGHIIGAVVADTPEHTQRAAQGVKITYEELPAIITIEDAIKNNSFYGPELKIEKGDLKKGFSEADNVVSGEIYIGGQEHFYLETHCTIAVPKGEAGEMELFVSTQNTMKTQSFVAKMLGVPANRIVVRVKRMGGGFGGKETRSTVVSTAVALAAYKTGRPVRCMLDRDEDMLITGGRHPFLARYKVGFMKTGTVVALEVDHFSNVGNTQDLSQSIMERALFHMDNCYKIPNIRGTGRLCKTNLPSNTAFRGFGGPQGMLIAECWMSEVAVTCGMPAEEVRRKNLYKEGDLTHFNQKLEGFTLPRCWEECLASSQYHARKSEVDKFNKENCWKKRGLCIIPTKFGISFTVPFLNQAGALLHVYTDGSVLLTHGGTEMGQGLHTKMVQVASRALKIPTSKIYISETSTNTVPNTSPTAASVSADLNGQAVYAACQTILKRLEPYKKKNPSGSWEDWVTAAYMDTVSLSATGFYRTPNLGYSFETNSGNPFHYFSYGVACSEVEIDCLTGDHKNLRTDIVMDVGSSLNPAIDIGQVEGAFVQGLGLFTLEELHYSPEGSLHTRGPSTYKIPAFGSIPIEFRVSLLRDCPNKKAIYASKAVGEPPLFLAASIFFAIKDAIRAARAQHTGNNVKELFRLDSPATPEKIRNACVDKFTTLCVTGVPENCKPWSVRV

[3] = target: T2, Xanthine dehydrogenase/oxidase (Bos taurus, UniProt P80457); assay: Inhibition of Bovine milk XO using xanthine as substrate measured after 10 mins by spectrophotometric analysis
T2 sequence (P80457 whole entry): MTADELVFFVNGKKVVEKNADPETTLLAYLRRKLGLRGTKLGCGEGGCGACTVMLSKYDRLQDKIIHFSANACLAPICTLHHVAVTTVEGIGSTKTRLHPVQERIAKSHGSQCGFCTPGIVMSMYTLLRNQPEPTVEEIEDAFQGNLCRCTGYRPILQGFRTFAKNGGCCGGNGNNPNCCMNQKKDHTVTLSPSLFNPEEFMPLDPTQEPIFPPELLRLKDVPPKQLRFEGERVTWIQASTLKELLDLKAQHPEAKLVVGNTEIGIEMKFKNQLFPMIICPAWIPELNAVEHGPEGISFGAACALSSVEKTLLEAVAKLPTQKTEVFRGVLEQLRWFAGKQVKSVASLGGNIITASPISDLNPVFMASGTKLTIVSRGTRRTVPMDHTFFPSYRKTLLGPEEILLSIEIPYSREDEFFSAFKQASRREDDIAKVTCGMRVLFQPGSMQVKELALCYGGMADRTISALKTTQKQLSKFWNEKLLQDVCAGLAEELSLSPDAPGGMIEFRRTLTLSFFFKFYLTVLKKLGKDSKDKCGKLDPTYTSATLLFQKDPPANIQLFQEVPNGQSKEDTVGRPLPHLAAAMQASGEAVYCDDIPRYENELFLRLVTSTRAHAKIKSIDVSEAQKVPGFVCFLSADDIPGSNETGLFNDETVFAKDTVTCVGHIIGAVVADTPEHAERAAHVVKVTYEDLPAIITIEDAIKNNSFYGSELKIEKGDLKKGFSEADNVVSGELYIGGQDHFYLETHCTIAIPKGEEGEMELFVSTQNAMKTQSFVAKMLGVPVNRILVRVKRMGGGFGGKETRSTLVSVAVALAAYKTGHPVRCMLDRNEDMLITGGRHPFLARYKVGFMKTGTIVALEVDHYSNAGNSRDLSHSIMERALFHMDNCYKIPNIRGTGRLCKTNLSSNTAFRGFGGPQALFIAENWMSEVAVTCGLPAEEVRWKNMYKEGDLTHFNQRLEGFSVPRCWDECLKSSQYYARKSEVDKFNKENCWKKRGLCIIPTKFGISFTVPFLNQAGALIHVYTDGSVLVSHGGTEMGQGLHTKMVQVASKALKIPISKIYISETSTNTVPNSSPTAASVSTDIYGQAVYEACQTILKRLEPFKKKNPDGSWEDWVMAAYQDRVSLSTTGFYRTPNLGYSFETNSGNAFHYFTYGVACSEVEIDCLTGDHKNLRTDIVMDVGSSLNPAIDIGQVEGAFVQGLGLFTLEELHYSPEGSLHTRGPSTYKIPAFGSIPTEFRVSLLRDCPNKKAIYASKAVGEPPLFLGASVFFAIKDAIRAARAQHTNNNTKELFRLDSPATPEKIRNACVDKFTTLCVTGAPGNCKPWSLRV

[4] = target: T2, Xanthine dehydrogenase/oxidase; assay: Inhibition of Bovine milk XO using xanthine as substrate at 100 uM measured after 10 mins by microplate reader analysis relative to control; conditions: cattle
[5] = target: T2, Xanthine dehydrogenase/oxidase; assay: Inhibition of Bovine milk XO using xanthine as substrate assessed as decrease in uric acid level measured after 15 mins by spectrophotometric analysis
[6] = target: T1, Xanthine dehydrogenase/oxidase; assay: Inhibition of XO (unknown origin) relative to control
[7] = Toxicity in rat assessed as hypouricemic activity at 3 mg/kg measured after 24 hrs; assay type: organism-based; conditions: in vivo
[8] = Toxicity in rat assessed as hypouricemic activity at 1 mg/kg; assay type: organism-based; conditions: in vivo
[9] = target: T2, Xanthine dehydrogenase/oxidase; assay: Inhibition of Bovine milk XO using xanthine as substrate assessed as decrease in uric acid level pre incubated for 15 mins followed by substrate addition measured after 30 mins by spectrophotometric analysis
[10] = target: T1, Xanthine dehydrogenase/oxidase; assay: Inhibition of XO (unknown origin) using xanthine as substrate pre incubated for 10 mins followed by substrate addition measured after 15 mins
[11] = target: T2, Xanthine dehydrogenase/oxidase; assay: Inhibition of Bovine milk XO measured after 30 mins
[12] = target: T2, Xanthine dehydrogenase/oxidase; assay: Inhibition of Bovine milk XO using xanthine as substrate assessed as decrease in uric acid level measured after 5 mins by spectrophotometric analysis
[13] = target: T3, Xanthine dehydrogenase/oxidase (Mus musculus, UniProt Q00519); assay: Inhibition of mouse serum XO assessed as decrease in uric acid level measured after 2 hrs relative to control
T3 sequence (Q00519 whole entry): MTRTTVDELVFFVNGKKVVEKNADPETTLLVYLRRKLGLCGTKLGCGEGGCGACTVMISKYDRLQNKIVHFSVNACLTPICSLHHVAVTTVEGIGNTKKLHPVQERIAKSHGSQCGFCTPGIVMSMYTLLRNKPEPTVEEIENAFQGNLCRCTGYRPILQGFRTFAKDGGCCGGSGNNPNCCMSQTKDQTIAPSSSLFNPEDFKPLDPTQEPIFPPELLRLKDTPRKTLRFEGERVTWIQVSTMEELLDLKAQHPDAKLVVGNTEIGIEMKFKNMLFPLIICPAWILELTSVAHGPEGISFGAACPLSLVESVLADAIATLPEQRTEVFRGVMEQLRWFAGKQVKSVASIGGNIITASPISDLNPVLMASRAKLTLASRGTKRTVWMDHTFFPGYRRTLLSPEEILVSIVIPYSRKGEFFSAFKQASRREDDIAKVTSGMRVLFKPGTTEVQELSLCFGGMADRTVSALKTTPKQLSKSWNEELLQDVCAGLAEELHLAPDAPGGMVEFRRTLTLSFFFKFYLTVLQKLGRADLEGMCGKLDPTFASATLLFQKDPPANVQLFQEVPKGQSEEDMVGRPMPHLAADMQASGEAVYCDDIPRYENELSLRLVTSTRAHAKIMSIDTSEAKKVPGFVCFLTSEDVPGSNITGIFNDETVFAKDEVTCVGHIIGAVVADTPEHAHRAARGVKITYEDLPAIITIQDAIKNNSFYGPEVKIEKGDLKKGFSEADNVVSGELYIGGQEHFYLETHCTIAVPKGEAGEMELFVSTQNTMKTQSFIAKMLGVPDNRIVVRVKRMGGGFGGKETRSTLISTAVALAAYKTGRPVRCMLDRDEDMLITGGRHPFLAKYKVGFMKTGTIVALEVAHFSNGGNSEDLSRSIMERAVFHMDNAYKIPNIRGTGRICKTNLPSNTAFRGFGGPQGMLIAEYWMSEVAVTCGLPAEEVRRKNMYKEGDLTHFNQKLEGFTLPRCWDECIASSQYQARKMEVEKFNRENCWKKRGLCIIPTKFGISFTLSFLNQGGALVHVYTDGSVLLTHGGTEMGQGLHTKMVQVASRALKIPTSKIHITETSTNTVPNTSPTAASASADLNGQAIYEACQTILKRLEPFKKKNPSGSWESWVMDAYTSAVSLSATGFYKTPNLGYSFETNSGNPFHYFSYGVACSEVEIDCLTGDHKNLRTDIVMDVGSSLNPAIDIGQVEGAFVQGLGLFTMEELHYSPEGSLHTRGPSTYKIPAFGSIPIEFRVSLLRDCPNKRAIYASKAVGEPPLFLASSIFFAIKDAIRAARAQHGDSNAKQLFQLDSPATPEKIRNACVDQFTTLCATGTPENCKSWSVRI

[14] = target: T3, Xanthine dehydrogenase/oxidase; assay: Inhibition of mouse serum XO assessed as decrease in uric acid level measured after 6 hrs relative to control
[15] = target: T4, Solute carrier family 22 member 12 (Homo sapiens, UniProt Q96S37); assay: Inhibition of URAT1 (unknown origin) assessed as decrease in uric acid level measured after 15 mins
T4 sequence (Q96S37 whole entry): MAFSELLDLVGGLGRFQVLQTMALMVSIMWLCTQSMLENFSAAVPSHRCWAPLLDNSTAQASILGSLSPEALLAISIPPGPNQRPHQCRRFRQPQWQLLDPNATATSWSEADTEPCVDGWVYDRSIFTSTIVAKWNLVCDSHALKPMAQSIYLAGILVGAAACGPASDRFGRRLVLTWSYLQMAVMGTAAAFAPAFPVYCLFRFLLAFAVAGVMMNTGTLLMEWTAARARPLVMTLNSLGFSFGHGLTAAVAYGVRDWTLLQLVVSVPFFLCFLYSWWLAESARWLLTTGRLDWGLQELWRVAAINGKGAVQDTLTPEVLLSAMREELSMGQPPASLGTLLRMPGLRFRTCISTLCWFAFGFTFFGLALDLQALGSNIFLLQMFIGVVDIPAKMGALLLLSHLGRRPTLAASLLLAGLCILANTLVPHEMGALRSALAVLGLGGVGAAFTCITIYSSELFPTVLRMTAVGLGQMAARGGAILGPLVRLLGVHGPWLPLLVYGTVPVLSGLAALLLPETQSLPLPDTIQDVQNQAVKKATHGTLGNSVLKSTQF

[16] = target: T2, Xanthine dehydrogenase/oxidase; assay: Inhibition of Bovine XO using xanthine as substrate assessed as decrease in uric acid level preincubated for 15 mins followed by substrate addition measured after 2 mins by spectrophotometric analysis
[17] = target: T1, Xanthine dehydrogenase/oxidase; assay: Inhibition of XO (unknown origin) using xanthine as substrate measured after 2 to 3 mins by UV-spectrophotometric analysis
[18] = target: T2, Xanthine dehydrogenase/oxidase; assay: Inhibition of Bovine milk XO using xanthine as substrate pre incubated for 5 mins followed by substrate addition measured after 30 mins by spectrophotometric analysis
[19] = target: T2, Xanthine dehydrogenase/oxidase; assay: Inhibition of Bovine XO using xanthine as substrate assessed as decrease in uric acid level by spectrophotometric analysis
[20] = target: T1, Xanthine dehydrogenase/oxidase; assay: Inhibition of XO (unknown origin) using xanthine as substrate measured after 10 mins
[21] = target: T2, Xanthine dehydrogenase/oxidase; assay: Inhibition of Bovine XO using xanthine as substrate assessed as decrease in uric acid level measured after 10 mins by spectrophotometric analysis
[22] = target: T4, Solute carrier family 22 member 12; assay: Inhibition of URAT1 (unknown origin)
[23] = target: T1, Xanthine dehydrogenase/oxidase; assay: Inhibition of XO (unknown origin) using xanthine as substrate assessed as decrease in uric acid level measured after 3 mins by spectrophotometric analysis
[24] = target: T2, Xanthine dehydrogenase/oxidase; assay: Inhibition of Bovine milk XO using xanthine as substrate measured after 10 mins by spectrophotometric analysis relative to control; conditions: cattle
[25] = target: T4, Solute carrier family 22 member 12; assay: Inhibition of human URAT1
[26] = target: T1, Xanthine dehydrogenase/oxidase; assay: Inhibition of XO (unknown origin) using xanthine as substrate pre incubated for 5 mins followed by substrate addition measured after 1 mins by spectrophotometric analysis
[27] = target: T2, Xanthine dehydrogenase/oxidase; assay: Inhibition of Bovine milk XO

For Cc1cc(-c2n[nH]c(-c3ccc(OCC(C)C)c(C#N)c3)n2)ccn1, which Activity [1] is on record?
Its Activity is 67.5%.

Which IC50 [2] does the source give for O=Cc1ccc(C2Nc3ccccc3-c3cc(-c4ccccc4)nn32)c([N+](=O)[O-])c1 (stereo unspecified) here?
The IC50 was 11 µM.

Which IC50 [3] does the source give for O=[N+]([O-])c1cc(C2=NC3=CN=CN(O)C3S2)ccc1Oc1ccccc1F (stereo unspecified) here?
The IC50 was 0.0054 µM.

With N#Cc1cn(-c2ccc(C(=O)O)c(O)c2)cc1-c1cccs1 as the compound, how does the inhibition at 100 µM [4] read?
Its inhibition at 100 µM is over 90%.

Which IC50 [5] does the source give for O=C(/C=C/c1cc(O)cc(O)c1)c1ccc(O)cc1O here?
Its IC50 is 22.5 µM.

For O=C1CC(c2ccccc2)Oc2c3c(c(CO)c(O)c21)OCN(c1ccc(F)cc1)C3 (stereo unspecified), which “inhibition (INH)” value [6] is on record?
Its value is 84.27%.

For Cc1nc(-c2ccc(OCC(C)(C)C)c(-n3cnnn3)c2)sc1C(=O)O, which Activity [7] is on record?
The Activity was 40%.

And the Activity [8]?
Its Activity is 50%.

With O=[N+]([O-])c1ccc(CSc2nnc(-c3cc(-c4ccccc4)nn3Cc3ccccc3)o2)cc1 as the compound, how does the IC50 [9] read?
Its IC50 is 72.4 µM.

For CN1C(=O)C(=Cc2ccc(Cl)cc2Cl)C(=O)N(C)C1=O, which IC50 [10] is on record?
The IC50 was 21000 µM.

For Cc1nc(-c2cc(C#N)c3c(c2)CC(C)O3)sc1C(=O)O (stereo unspecified), which IC50 [11] is on record?
Its IC50 is 0.00184 µM.

With Cc1cc(-c2nc(-c3ccc(OCC(C)C)c([N+](=O)[O-])c3)n[nH]2)ccn1 as the compound, how does the Activity [1] read?
The Activity was 66.5%.

Which IC50 [12] does the source give for O=c1oc2cc(O)cc(O)c2cc1-c1cccc(O)c1 here?
The IC50 was 2.13 µM.

Which “inhibition (INH)” value [13] does the source give for Oc1ncnc2[nH]ncc12 [ALLOPURINOL] here?
The value was 33%.

What about the “inhibition (INH)” value [14] of the same compound?
Its value is 14%.

Which Activity [8] does the source give for Cc1nc(-c2ccc(OC(C)C)c(-n3cnnn3)c2)sc1C(=O)O here?
Its Activity is 50%.

Which IC50 [15] does the source give for N#Cc1c(Cl)cc(NS(=O)(=O)c2ccccc2OC(F)(F)F)cc1Cl here?
Its IC50 is 0.004 µM.

For O=c1[nH]c(-c2ccc(OCC3CCCCC3)c(-n3cnnn3)c2)no1, which IC50 [16] is on record?
Its IC50 is 0.121 µM.

For COc1ccc([C@@H]2C/C(=N\c3ccc([N+](=O)[O-])cc3Cl)C3C(O)=CC(O[C@H]4C[C@@H](OC5O[C@H](C)[C@@H](O)[C@H](O)C5O)[C@H](O)[C@@H](O)[C@@H]4O)=CC3O2)cc1O (stereo partly specified), which IC50 [17] is on record?
The IC50 was 0.263 µM.

With Cc1nn(-c2ccc(OCCC(C)C)c(C#N)c2)nc1C(=O)O as the compound, how does the IC50 [18] read?
Its IC50 is 0.084 µM.

Which IC50 [19] does the source give for O=C(O)c1ccc2c(c1)C(=O)N(c1ccccc1)C2=O here?
The IC50 was 7.15 µM.

For COC(=O)[C@H]1C[C@@H](n2cc(-c3ccccc3)nn2)[C@H](O)C[C@H]1C(=O)OC, which IC50 [20] is on record?
The IC50 was 0.586 µM.

Which IC50 [11] does the source give for CCC1(C)Cc2cc(-c3nc(C)c(C(=O)O)s3)cc(C#N)c2O1 (stereo unspecified) here?
The IC50 was 0.00135 µM.

For Cc1cc(C)c(C[n+]2cn(CCO)c3ccccc32)c(C)c1, which IC50 [20] is on record?
The IC50 was 1.25 µM.

For COc1cc(OC)c(C(=O)/C=C/c2ccccc2F)c(O)c1C(=O)/C=C/c1ccccc1F, which IC50 [21] is on record?
Its IC50 is 0.728 µM.

For O=C(Nc1ccc(-c2nnn[nH]2)cc1)c1c(O)[nH]c(=S)[nH]c1=O, which IC50 [22] is on record?
Its IC50 is 0.39 µM.

With COc1ccc2c(c1)c(CC(=O)O)c(C)n2C(=O)c1ccc(Cl)cc1 [INDOMETHACIN] as the compound, how does the IC50 [23] read?
The IC50 was 86 µM.

With Cc1nc(-c2cc(C#N)c3c(c2)CCC(C)(C)O3)[se]c1C(=O)O as the compound, how does the IC50 [11] read?
Its IC50 is 0.00236 µM.

For Cc1ccc2c(-c3ccc(C(=O)O)c(O)c3)cc(C#N)n2n1, which “inhibition (INH)” value [24] is on record?
The value was 60%.

What about the IC50 [3] of the same compound?
The IC50 was 0.003 µM.

For O=C(NC(Cc1ccccc1)C(=O)O)c1ccc2c(c1)C(=O)c1ccccc1C2=O (stereo unspecified), which IC50 [21] is on record?
The IC50 was 2.9 µM.

Which IC50 [11] does the source give for Cc1nc(-c2cc(C#N)c3c(c2)CC2(CCCCC2)O3)sc1C(=O)O here?
Its IC50 is 0.0014 µM.

For Cc1nc(-c2cc(C#N)c3c(c2)CCC(C)(C)O3)sc1C(=O)O, which IC50 [11] is on record?
Its IC50 is 0.00265 µM.

Which inhibition at 100 µM [4] does the source give for CCCCc1cn(-c2ccc(C(=O)O)c(O)c2)cc1C#N here?
The inhibition at 100 µM was over 90%.

Which IC50 [9] does the source give for Nn1c(S)nnc1-c1cc(-c2ccccc2)nn1Cc1ccccc1 here?
The IC50 was 65.4 µM.

Which inhibition at 100 µM [4] does the source give for COCOc1cccc(-c2c[nH]cc2C#N)c1 here?
The inhibition at 100 µM was over 90%.

With Cc1nc(-c2ccc(OCC(C)C)c(-n3cnnn3)c2)sc1C(=O)O as the compound, how does the Activity [7] read?
Its Activity is 40%.

And the Activity [8]?
The Activity was 50%.

With COC(=O)C(Sc1nnc(Br)n1-c1ccc(Br)c2ccccc12)C(=O)OC as the compound, how does the IC50 [25] read?
The IC50 was 0.0197 µM.

With N#Cc1ccc(NS(=O)(=O)c2ccccc2OC(F)(F)F)cc1Cl as the compound, how does the IC50 [15] read?
Its IC50 is 0.006 µM.

With Clc1cc2nc(-c3ccncc3)[nH]c2cc1Cl as the compound, how does the “inhibition (INH)” value [6] read?
Its value is 56%.

For Cc1nc(-c2cc(C#N)c3c(c2)CC2(CCCC2)O3)[se]c1C(=O)O, which IC50 [11] is on record?
The IC50 was 0.00158 µM.

Which IC50 [26] does the source give for COc1ccc(-c2cc3cc([N+](=O)[O-])ccc3oc2=O)cc1 here?
The IC50 was 8.4 µM.

Which IC50 [11] does the source give for CCOC(=O)c1sc(-c2cc(I)c3c(c2)CCC(C)(C)O3)nc1C here?
Its IC50 is 0.0013 µM.

With OCc1ccc(O)c(O)c1 as the compound, how does the IC50 [27] read?
Its IC50 is 3 µM.

With Cc1nc(-c2cc(I)c3c(c2)CCC(C)(C)O3)sc1C(=O)O as the compound, how does the IC50 [11] read?
Its IC50 is 0.00187 µM.
